Experimental data reported in patent US20230181746A1, “BENZOYLHYDRAZIDE-DERIVED HDAC DEGRADERS AS THERAPEUTICS FOR TREATING CANCER AND OTHER HUMAN DISEASES” (University of Florida Research Foundation, Inc., priority 2020, published 2023).

Experiments:
[1] = system: non-small cell lung cancer (NSCLC) cell line H1299; assay: Clonogenic growth assay, H1299; type: cell-based; settings: H1299, treatment for 10 days
Protocol: H1299 cells were exposed to DMSO, or 28c at the indicated concentrations. Colonies were fixed and stained after treatment for 10 days.
(§1) Cell lines were obtained from ATCC and subsequently authenticated. Cells were cultured with DMEM supplemented with 10% bovine calf serum, penicillin to 10 units/mL, and streptomycin to 10 μg/mL. For viability assays, 5,000 cells/well were seeded in 96-well plates. Compounds at a specified concentration or DMSO were added 24 h later. Viability assays were performed 72 h after compound addition using the CellTiter-Glo reagents (Promega). For colony formation assay, cells (˜1,000 cells/well) were seeded in a 24-well plate in quadruplicates. At 24 h after seeding, DMSO, XZ9002, or XZ9002-NC were added at a specified concentration. Medium was replaced with freshly prepared medium containing DMSO, XZ9002 or XZ9002-NC every five days until visible colonies appeared, typically in 15 to 20 days after initial cell seeding. Cells were fixed with 4% paraformaldehyde for 15 min and stained with 2% methylene blue in 20% ethanol for 30 min to 1 h. The cells were washed twice with distilled water and dried in air. For western blotting, cell cultures were exposed to compounds as indicated in relevant figures. Medium was removed from culture plate, and 1 x passive lysis buffer was then added, the plates were frozen at −80° C. overnight and thawed at room temperature. […]

[2] = biological target: HDAC1 (Homo sapiens, UniProt Q13547); assay: In vitro HDAC activity assay (HDAC-Glo I/II), HDAC1; type: biochemical; parameters: purchased Enzo Life Sciences BML-SE456-0050; settings: average of three independent assays ± standard deviation
Sequence of HDAC1 (Q13547 whole entry, the tested form may be a part): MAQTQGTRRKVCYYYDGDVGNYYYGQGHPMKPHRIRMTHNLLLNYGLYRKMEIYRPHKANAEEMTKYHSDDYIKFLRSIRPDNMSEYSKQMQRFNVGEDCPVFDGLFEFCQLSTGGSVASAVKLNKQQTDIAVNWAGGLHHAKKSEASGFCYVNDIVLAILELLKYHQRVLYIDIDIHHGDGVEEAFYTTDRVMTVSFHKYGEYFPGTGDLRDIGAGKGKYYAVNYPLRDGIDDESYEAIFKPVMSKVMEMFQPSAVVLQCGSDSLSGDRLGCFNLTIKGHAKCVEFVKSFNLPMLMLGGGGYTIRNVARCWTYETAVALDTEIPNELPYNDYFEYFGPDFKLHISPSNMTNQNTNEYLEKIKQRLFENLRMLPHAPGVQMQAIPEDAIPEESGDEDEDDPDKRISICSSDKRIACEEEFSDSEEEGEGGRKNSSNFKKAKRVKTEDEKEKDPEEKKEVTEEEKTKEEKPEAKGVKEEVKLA
Protocol: (§2) Purified HDAC1, HDAC2, and HDAC3 (in complex with the deacetylase activation domain of the human NCOR2 (amino acids 395-498)) were obtained from Enzo Life Sciences (HDAC1, catalog # BML-SE456-0050) and BPS Bioscience (HDAC2, catalog #50002 and HDAC3, catalog #50003), respectively. The enzyme activities were tested using the HDAC-Glo I/II reagents (Promega) according to a protocol provided by the manufacturer.

[3] = biological target: T1, HDAC2 (Homo sapiens, UniProt Q92769); assay: In vitro HDAC activity assay (HDAC-Glo I/II), HDAC2; type: biochemical; parameters: purchased BPS Bioscience 50002; settings: average of three independent assays ± standard deviation
T1 sequence (Q92769 whole entry): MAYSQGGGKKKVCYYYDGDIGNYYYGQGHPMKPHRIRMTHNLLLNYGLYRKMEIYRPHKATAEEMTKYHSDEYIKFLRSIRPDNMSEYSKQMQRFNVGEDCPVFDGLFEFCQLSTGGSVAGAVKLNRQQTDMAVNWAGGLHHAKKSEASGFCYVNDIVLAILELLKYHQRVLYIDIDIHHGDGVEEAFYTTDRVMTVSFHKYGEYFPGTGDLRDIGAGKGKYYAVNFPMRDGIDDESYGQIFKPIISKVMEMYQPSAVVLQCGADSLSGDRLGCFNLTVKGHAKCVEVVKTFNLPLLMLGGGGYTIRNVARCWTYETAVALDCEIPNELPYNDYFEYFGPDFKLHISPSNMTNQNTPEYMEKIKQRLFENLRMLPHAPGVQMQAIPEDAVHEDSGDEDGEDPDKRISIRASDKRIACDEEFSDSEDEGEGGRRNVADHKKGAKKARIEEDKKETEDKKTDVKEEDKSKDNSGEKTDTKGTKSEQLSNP
Protocol: as §2

[4] = biological target: T2, HDAC3 (in complex with the deacetylase activation domain of the human NCOR2 (amino acids 395-498)) (Homo sapiens, UniProt O15379); assay: In vitro HDAC activity assay (HDAC-Glo I/II), HDAC3; type: biochemical; settings: for IC50: HDAC-Glo I/II, average of three independent assays ± standard deviation
T2 construct: purchased BPS Bioscience 50003
T2 sequence (O15379 whole entry, the tested form may be a part): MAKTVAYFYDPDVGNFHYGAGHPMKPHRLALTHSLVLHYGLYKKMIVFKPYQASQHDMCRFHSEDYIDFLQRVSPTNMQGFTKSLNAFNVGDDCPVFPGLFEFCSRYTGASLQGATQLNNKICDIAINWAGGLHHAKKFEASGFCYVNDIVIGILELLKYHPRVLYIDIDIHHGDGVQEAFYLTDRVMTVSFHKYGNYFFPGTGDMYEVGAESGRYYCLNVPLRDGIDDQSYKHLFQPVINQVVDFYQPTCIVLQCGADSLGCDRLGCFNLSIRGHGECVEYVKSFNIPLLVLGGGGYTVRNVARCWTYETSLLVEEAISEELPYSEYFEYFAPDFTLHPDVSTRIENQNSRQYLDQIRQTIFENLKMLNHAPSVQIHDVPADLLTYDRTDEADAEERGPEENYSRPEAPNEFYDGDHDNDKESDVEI
T2 sequence (Q9Y618 395-498 partner limits assumed): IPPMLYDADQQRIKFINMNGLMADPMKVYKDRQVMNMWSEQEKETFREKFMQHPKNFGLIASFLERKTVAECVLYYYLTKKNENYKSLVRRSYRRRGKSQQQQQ
Protocol: as §2

[5] = system: MDA-MB-468 cells; assay: Cell viability assay (CellTiter-Glo); type: cell-based
Protocol: MDA-MB-468, MDA-MB-231, and T47D cells were treated with the indicated compounds at different concentrations for 72 h. Cell viability was assessed with CellTiter-Glo® reagents.
as §1, with “temperature. The total cell lysates were mixed with a one fifth volume of 6x SDS sample buffer, heated at 95° C. for 5 min and cooled on ice. The lysates were cleared by centrifugation and then subjected to SDS-PAGE and western blotting essentially as described.” for “temperature.”

[6] = biological target: HDAC3 (Homo sapiens, UniProt O15379); assay: HDAC3 degradation in breast cancer cell lines, Western blot; type: cell-based; parameters: endogenous in cells; host or cells: MDA-MB-468, T47D, MCF7; settings: MCF7 cells, 4 h (FIG. 8A)
Sequence of HDAC3 (O15379 whole entry): as the sequence (O15379 whole entry, the tested form may be a part) above
Sequence of HDAC3 (Q9Y618 395-498 partner limits assumed): as the sequence (Q9Y618 395-498 partner limits assumed) above
Description: Data are presented as representative figures of two independent experiments.
Cells were lysed for WB with antibodies against the indicated proteins. Antibodies against acetylated histones at specific sites (H3K27 and H4K5) and acetyl-lysine were used to assess levels of histone acetylation.
Cells were lysed for WB. […] The indicated BC cell lines were exposed to DMSO, XZ9002, or XZ9002-NC at the indicated concentrations. Colonies were fixed and stained.
Cell lines were obtained from ATCC and subsequently authenticated. Cells were cultured with DMEM supplemented with 10% bovine calf serum, penicillin to 10 units/mL, and streptomycin to 10 μg/mL. For viability assays, 5,000 cells/well were seeded in 96-well plates. […] For colony formation assay, cells (˜1,000 cells/well) were seeded in a 24-well plate in quadruplicates. […] Medium was replaced with freshly prepared medium containing DMSO, XZ9002 or XZ9002-NC every five days until visible colonies appeared, typically in 15 to 20 days after initial cell seeding. Cells were fixed with 4% paraformaldehyde for 15 min and stained with 2% methylene blue in 20% ethanol for 30 min to 1 h. The cells were washed twice with distilled water and dried in air. For western blotting, cell cultures were exposed to compounds as indicated in relevant figures. Medium was removed from culture plate, and 1 x passive lysis buffer was then added, the plates were frozen at −80° C. overnight and thawed at room temperature. The total cell lysates were mixed with a one fifth volume of 6x SDS sample buffer, heated at 95° C. for 5 min and cooled on ice. The lysates were cleared by centrifugation and then subjected to SDS-PAGE and western blotting essentially as described.

[7] = biological target: T1, HDAC2; assay: HDAC2 protein level in breast cancer cell lines, Western blot; type: cell-based; settings: MCF7 cells, 4 h (FIG. 8A)
Protocol: FIG. 3A: Western blot showing HDAC protein levels in MDA-MB-468 cells treated with the indicated concentration of XZ9002 for 14 h. FIG. 3B: pretreatment with 1 μM MG132, or 10 μM VHL032 for 1 h blocked the degradation of HDAC3 by XZ9002 {125 nM}. […] NC: XZ9002-NC. FIG. 3C: time-dependent experiment in MDA-MB-468 cells after treatment with 125 nM XZ9002 at the indicated time points. FIG. 3D: MDA-MB-468 cells were incubated with 125 nM of XZ9002 for 14 h followed by drug washout, and incubation of the cells in drug-free medium for an additional time. Data are presented as representative figures of two independent experiments.
The culture of the triple-negative breast cancer cell line MDA-MB-468 and the ER+ breast cancer cell line T47D was exposed to vehicle control (DMSO) and the indicated compounds at specified concentrations for 14 h. Cells were lysed for WB with antibodies against the indicated proteins. Antibodies against acetylated histones at specific sites (H3K27 and H4K5) and acetyl-lysine were used to assess levels of histone acetylation. Levels of HDAC3 were normalized against that of tubulin and % of HDAC3 protein levels in cells treated with the indicated compounds relative to that in DMSO control is shown.
FIGS. 8A-8B show the cellular activity of XZ9002. […] Cells were lysed for WB. The relative HDAC3 protein level in each sample is shown. […]

CCCNNC(=O)c1ccc(N2CCN(CCCCCCCC(=O)N[C@H](C(=O)N3C[C@H](O)C[C@H]3C(=O)N[C@@H](C)c3ccc(-c4scnc4C)cc3)C(C)(C)C)CC2)cc1 [Compound 28c, (2S,4R)-1-((S)-3,3-dimethyl-2-(8-(4-(4-(2-propylhydrazine-1-carbonyl)phenyl)piperazinyl)octanamido)butanoyl)-4-hydroxy-N—((S)-1-(4-(4-methylthiazol-5-yl)phenyl)ethyl)pyrrolidine carboxamide]
inhibition of clonogenic growth [1]: effective to inhibit clonogenic growth

CCCNNC(=O)c1ccc(-c2ccc(NC(=O)CCCCC(=O)N[C@H](C(=O)N3C[C@H](O)C[C@H]3C(=O)N[C@@H](C)c3ccc(-c4scnc4C)cc3)C(C)(C)C)cc2)cc1 [Compound 8b, N^1—((S)-1-((2S,4R)-4-Hydroxy-2-(((S)-1-(4-(4-methylthiazol-5-yl)phenyl)ethyl)carbamoyl)pyrrolidin-1-yl)-3,3-dimethyl-1-oxobutan-2-yl)-N^6-(4′-(2-propylhydrazine-1-carbonyl)-[1,1′-biphenyl]-4-yl)adipamide]
IC50 [2]: 360 ± 60 nM
IC50 [3]: 1650 ± 70 nM
IC50 [4]: 320 ± 30 nM
antiproliferative activity (in words) ([5]; MDA-MB-468, 72 h, similar trends in MDA-MB-231 and T47D cells): decreased antiproliferative activity

CCCNNC(=O)c1ccc(-c2ccc(NC(C)=O)cc2)cc1 [Compound 15, N-(4′-(2-propylhydrazine-1-carbonyl)[1,1′-biphenyl]-4-yl)acetamide]
IC50 [2]: 72 ± 10 nM
HDAC3 degradation (in words) [6]: does not significantly degrade
IC50 [3]: 82 ± 25 nM
IC50 [4]: 13 ± 1 nM
preference for HDAC3 ([4]; against the other tested HDAC isoforms): ≥ 13 fold
HDAC2 degradation (in words) [7]: does not significantly degrade
IC50 ([5]; Homo sapiens, MDA-MB-468 cell line, 72 h, CellTiter-Glo, read-out: IC50 cytotoxicity (cell viability)): 990 nM
